Assays:
[1] = tested on: Common cutworm (Spodoptela litura); assay: Test Example 1: pesticidal effect of artificial diet irrigation treatment on Common cutworm; format: in vivo; conditions: artificial diet irrigated with 2 mL test solution, fourth instar larvae, after 6 days
[2] = tested on: Common cutworm (Spodoptela litura); assay: Test Example 2: pesticidal effect of artificial diet irrigation treatment on Common cutworm; format: in vivo; conditions: artificial diet irrigated with 2 mL test solution, fourth instar larvae, after 6 days
[3] = composition of the compound and esfenvalerate, Table 43
[4] = composition of the compound and fenpropathrin, Table 44
[5] = composition of the compound and esfenvalerate, Table 45
[6] = composition of the compound and fenpropathrin, Table 46

SMILES: FC(F)(F)c1ccc2oc(-c3ccncc3Cl)nc2c1 [Compound 18, 2-(3-chloropyridin-4-yl)-5-(trifluoromethyl)benzoxazole]
- pesticidal efficacy against Common cutworm (Spodoptela litura) [1, 3]: high pesticidal efficacy
- pesticidal efficacy against Common cutworm (Spodoptela litura) [1, 4]: high pesticidal efficacy

SMILES: FC(F)(F)COc1cnccc1-c1nc2cc(C(F)(F)F)ccc2o1 [Compound 39, 2-[3-(2,2,2-trifluoroethyl)oxypyridin-4-yl]-5-(trifluoromethyl)benzoxazole]
- pesticidal efficacy against Common cutworm (Spodoptela litura) [2, 5]: high pesticidal efficacy
- pesticidal efficacy against Common cutworm (Spodoptela litura) [2, 6]: high pesticidal efficacy

SMILES: CC(C)Oc1cnccc1-c1nc2cc(C(F)(F)F)ccc2o1 [Compound 70, 2-(3-isopropoxypyridin-4-yl)-5-(trifluoromethyl)benzoxazole]
- pesticidal efficacy against Common cutworm (Spodoptela litura) [1, 3]: high pesticidal efficacy
- pesticidal efficacy against Common cutworm (Spodoptela litura) [1, 4]: high pesticidal efficacy

SMILES: FC(F)(F)Sc1ccc2oc(-c3ccncc3Cl)nc2c1 [Compound 77, 2-(3-chloropyridin-4-yl)-5-(trifluoromethylthio)benzoxazole]
- pesticidal efficacy against Common cutworm (Spodoptela litura) [1, 3]: high pesticidal efficacy
- pesticidal efficacy against Common cutworm (Spodoptela litura) [1, 4]: high pesticidal efficacy

SMILES: CCc1cnccc1-c1nc2cc(OC(F)(F)F)ccc2o1 [Compound 109, 2-(3-ethylpyridin-4-yl)-5-(trifluoromethoxy)benzoxazole]
- pesticidal efficacy against Common cutworm (Spodoptela litura) [1, 3]: high pesticidal efficacy
- pesticidal efficacy against Common cutworm (Spodoptela litura) [1, 4]: high pesticidal efficacy

SMILES: CC(C)COc1cnccc1-c1nc2cc(C(F)(F)F)ccc2o1 [Compound 116, 2-(3-isobutoxypyridin-4-yl)-5-(trifluoromethyl)benzoxazole]
- pesticidal efficacy against Common cutworm (Spodoptela litura) [2, 5]: high pesticidal efficacy
- pesticidal efficacy against Common cutworm (Spodoptela litura) [2, 6]: high pesticidal efficacy

SMILES: CC(C)(C)COc1cnccc1-c1nc2cc(C(F)(F)F)ccc2o1 [Compound 117, 2-[3-(2,2-dimethylpropoxy)pyridin-4-yl]-5-(trifluoromethyl)benzoxazole]
- pesticidal efficacy against Common cutworm (Spodoptela litura) [2, 5]: high pesticidal efficacy
- pesticidal efficacy against Common cutworm (Spodoptela litura) [2, 6]: high pesticidal efficacy

SMILES: FC(F)(F)c1ccc2oc(-c3ccncc3-c3cccnc3)nc2c1 [Compound 128, 4-(5-trifluoromethyl-benzoxazole-2-yl)-[3,3′]bipyridinyl]
- pesticidal efficacy against Common cutworm (Spodoptela litura) [1, 3]: high pesticidal efficacy
- pesticidal efficacy against Common cutworm (Spodoptela litura) [1, 4]: high pesticidal efficacy

SMILES: FC(F)(F)c1cnc2oc(-c3ccncc3Cl)nc2c1 [Compound 139, 2-(3-chloropyridin-4-yl)-6-(trifluoromethyl)oxazolo[5,4-b]pyridine]
- pesticidal efficacy against Common cutworm (Spodoptela litura) [1, 3]: high pesticidal efficacy
- pesticidal efficacy against Common cutworm (Spodoptela litura) [1, 4]: high pesticidal efficacy

SMILES: CCc1cnccc1-c1nc2cc(C(F)(F)F)cnc2o1 [Compound 143, 2-(3-ethylpyridin-4-yl)-6-(trifluoromethyl)oxazolo[5,4-b]pyridine]
- pesticidal efficacy against Common cutworm (Spodoptela litura) [1, 3]: high pesticidal efficacy
- pesticidal efficacy against Common cutworm (Spodoptela litura) [1, 4]: high pesticidal efficacy

SMILES: CSc1cnccc1-c1nc2cc(C(F)(F)F)cnc2o1 [Compound 146, 2-(3-methylthiopyridin-4-yl)-6-(trifluoromethyl)oxazolo[5,4-b]pyridine]
- pesticidal efficacy against Common cutworm (Spodoptela litura) [1, 3]: high pesticidal efficacy
- pesticidal efficacy against Common cutworm (Spodoptela litura) [1, 4]: high pesticidal efficacy

SMILES: FC(F)(F)COc1cnccc1-c1nc2cc(C(F)(F)F)cnc2o1 [Compound 163]
- pesticidal efficacy against Common cutworm (Spodoptela litura) [2, 5]: high pesticidal efficacy
- pesticidal efficacy against Common cutworm (Spodoptela litura) [2, 6]: high pesticidal efficacy

Reference: US20120252803A1, “COMPOSITION AND METHOD FOR CONTROLLING ARTHROPOD PESTS” (SUMITOMO CHEMICAL COMPANY, LIMITED, priority 2009, published 2012)
